Data as given in patent US20260285850A1, “SUBSTITUTED OXAZOLIDINONES AND IMIDAZOLINONES AS HERBICIDES” (FMC CORPORATION, priority 2023, published 2026).

Assays:
Assay type in all cases: in vivo
[1] = tested on: barnyardgrass (Echinochloa crus-galli); assay: Test A preemergence soil spray, visual injury rating 0-100; settings: 10 days, 0 = no effect, 100 = complete control
Method in brief: (§1)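 Visual injury, scored 0-100 (100 = complete control) against untreated plants, 10 days after greenhouse treatment. Test chemicals in surfactant-containing non-phytotoxic solvent were applied in loam soil and sand, as a preemergence soil spray on seeds or postemergence to plants at the one- to two-leaf stage.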

[2] = tested on: blackgrass (Alopecurus myosuroides); assay: as above; settings: 10 days, 0 = no effect, 100 = complete control
Method in brief: as §1

corn (Zea mays) [3] = assay: as above; settings: 10 days, 0 = no effect, 100 = complete control
Method in brief: as §1

[4] = tested on: green foxtail (Setaria viridis); assay: as above; settings: 10 days, 0 = no effect, 100 = complete control
Method in brief: as §1

kochia (Bassia scoparia) [5] = assay: as above; settings: 10 days, 0 = no effect, 100 = complete control
Method in brief: as §1

[6] = tested on: oat, wild (wild oat, Avena fatua); assay: as above; settings: 10 days, 0 = no effect, 100 = complete control
Method in brief: as §1

[7] = tested on: palmer (palmer amaranth, palmer pigweed, Amaranthus palmeri); assay: as above; settings: 10 days, 0 = no effect, 100 = complete control
Method in brief: as §1

[8] = tested on: ragweed (common ragweed, Ambrosia artemisiifolia); assay: as above; settings: 10 days, 0 = no effect, 100 = complete control
Method in brief: as §1

[9] = tested on: ryegrass, Italian (italian ryegrass, Lolium multiflorum); assay: as above; settings: 10 days, 0 = no effect, 100 = complete control
Method in brief: as §1

soybean (Glycine max) [10] = assay: as above; settings: 10 days, 0 = no effect, 100 = complete control
Method in brief: as §1

[11] = tested on: wheat (Triticum aestivum); assay: as above; settings: 10 days, 0 = no effect, 100 = complete control
Method in brief: as §1

[12] = tested on: barnyardgrass (Echinochloa crus-galli); assay: Test A postemergence application, visual injury rating 0-100; settings: 10 days
Method in brief: as §1

[13] = tested on: blackgrass (Alopecurus myosuroides); assay: as above; settings: 10 days
Method in brief: as §1

corn (Zea mays) [14] = assay: as above; settings: 10 days
Method in brief: as §1

[15] = tested on: galium (catchweed bedstraw, Galium aparine); assay: as above; settings: 10 days
Method in brief: as §1

[16] = tested on: green foxtail (Setaria viridis); assay: as above; settings: 10 days
Method in brief: as §1

[17] = tested on: horseweed (Erigeron canadensis); assay: as above; settings: 10 days
Method in brief: as §1

kochia (Bassia scoparia) [18] = assay: as above; settings: 10 days
Method in brief: as §1

[19] = tested on: oat, wild (wild oat, Avena fatua); assay: as above; settings: 10 days
Method in brief: as §1

[20] = tested on: palmer (palmer amaranth, palmer pigweed, Amaranthus palmeri); assay: as above; settings: 10 days
Method in brief: as §1

[21] = tested on: ragweed (common ragweed, Ambrosia artemisiifolia); assay: as above; settings: 10 days
Method in brief: as §1

[22] = tested on: ryegrass, Italian (italian ryegrass, Lolium multiflorum); assay: as above; settings: 10 days
Method in brief: as §1

soybean (Glycine max) [23] = assay: as above; settings: 10 days
Method in brief: as §1

[24] = tested on: wheat (Triticum aestivum); assay: as above; settings: 10 days
Method in brief: as §1

[25] = tested on: barnyardgrass (Echinochloa crusgalli); assay: Test B flooded paddy test, visual plant response rating 0-100; settings: 250 g ai/ha, Flood, applied to paddy water, evaluated after 13 days
Method in brief: (§2)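 Each species was raised to two leaves before flooding to a 3 cm depth and dosing the water with compound. Injury was assessed by eye after 13 days under greenhouse conditions.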

[26] = tested on: ducksalad (Heteranthera limosa); assay: as above; settings: 250 g ai/ha, Flood, applied to paddy water, evaluated after 13 days
Method in brief: as §2

rice (Oryza sativa) = assay: as above; settings: 250 g ai/ha, Flood, applied to paddy water, evaluated after 13 days
Method in brief: as §2

[27] = tested on: sedge, umbrella (small-flower umbrella sedge, Cyperus difformis); assay: as above; settings: 250 g ai/ha, Flood, applied to paddy water, evaluated after 13 days
Method in brief: as §2

[28] = 31 g ai/ha, postemergence, 0 = no effect, 100 = complete control
[29] = Postemergence, 125 g ai/ha, 0 is no effect, 100 is complete control

COC(=O)C1=CCC(NC(=O)C2(C)CN(c3cc(F)cc(F)c3)C(=O)O2)C1 (single isomer, unassigned) [Compound 20]
90: Barnyardgrass plant response rating (0 to 100 scale) [12, 29] | Soybean plant response rating (0 to 100 scale) (soybean (Glycine max) [23]; [29])
30: Ragweed plant response rating (0-100) ([8]; 31 g ai/ha) | Amaranth, Palmer / Pigweed, Palmer plant response rating (0 to 100 scale) [20, 29] | Ragweed plant response rating (0 to 100 scale) [21, 29]
100: Corn plant response rating (0 to 100 scale) (corn (Zea mays) [14]; [29])
0: Barnyardgrass plant response rating (0-100) ([1]; 31 g ai/ha) | Barnyardgrass plant response rating (0 to 100 scale) ([1]; 125 g ai/ha) | Blackgrass plant response rating (0-100) ([2]; 31 g ai/ha) | Blackgrass plant response rating (0 to 100 scale) ([2]; 125 g ai/ha) | Corn plant response rating (0-100) (corn (Zea mays) [3]; 31 g ai/ha) | Corn plant response rating (0 to 100 scale) (corn (Zea mays) [3]; 125 g ai/ha) | Foxtail, Green plant response rating (0-100) ([4]; 31 g ai/ha) | Foxtail, Green plant response rating (0 to 100 scale) ([4]; 125 g ai/ha) | Kochia plant response rating (0-100) (kochia (Bassia scoparia) [5]; 31 g ai/ha) | Kochia plant response rating (0 to 100 scale) (kochia (Bassia scoparia) [5]; 125 g ai/ha) | Oat, Wild plant response rating (0-100) ([6]; 31 g ai/ha) | Oat, Wild plant response rating (0 to 100 scale) ([6]; 125 g ai/ha) | Amaranth, Palmer plant response rating (0-100) ([7]; 31 g ai/ha) | Amaranth, Palmer plant response rating (0 to 100 scale) ([7]; 125 g ai/ha) | Ragweed plant response rating (0 to 100 scale) ([8]; 125 g ai/ha) | Ryegrass, Italian plant response rating (0-100) ([9]; 31 g ai/ha) | Wheat plant response rating (0-100) ([11]; 31 g ai/ha) | Barnyardgrass plant response rating (0-100) [12, 28] | Blackgrass plant response rating (0-100) [13, 28] | Horseweed plant response rating (0-100) [17, 28] | Horseweed plant response rating (0 to 100 scale) [17, 29] | Kochia plant response rating (0-100) (kochia (Bassia scoparia) [18]; [28]) | Amaranth, Palmer plant response rating (0-100) [20, 28] | Ragweed plant response rating (0-100) [21, 28] | Ryegrass, Italian plant response rating (0-100) [22, 28] | Wheat plant response rating (0-100) [24, 28] | Plant response rating, Barnyardgrass (0 to 100 scale, 0 is no effect and 100 is complete control) [25] | Plant response rating, Ducksalad (0 to 100 scale, 0 is no effect and 100 is complete control) [26] | Plant response rating, Rice (0 to 100 scale, 0 is no effect and 100 is complete control) (rice (Oryza sativa)) | Plant response rating, Sedge, Umbrella (0 to 100 scale, 0 is no effect and 100 is complete control) [27]
20: Ryegrass, Italian plant response rating (0 to 100 scale) ([9]; 125 g ai/ha) | Soybean plant response rating (0-100) (soybean (Glycine max) [10]; 31 g ai/ha) | Wheat plant response rating (0 to 100 scale) ([11]; 125 g ai/ha) | Galium plant response rating (0-100) [15, 28] | Foxtail, Green plant response rating (0-100) [16, 28] | Oat, Wild plant response rating (0-100) [19, 28]
40: Corn plant response rating (0-100) (corn (Zea mays) [14]; [28])
50: Kochia plant response rating (0 to 100 scale) (kochia (Bassia scoparia) [18]; [29]) | Soybean plant response rating (0-100) (soybean (Glycine max) [23]; [28])
80: Galium plant response rating (0 to 100 scale) [15, 29] | Foxtail, Green plant response rating (0 to 100 scale) [16, 29] | Ryegrass, Italian plant response rating (0 to 100 scale) [22, 29] | Wheat plant response rating (0 to 100 scale) [24, 29]
60: Soybean plant response rating (0 to 100 scale) (soybean (Glycine max) [10]; 125 g ai/ha) | Blackgrass plant response rating (0 to 100 scale) [13, 29] | Oat, Wild plant response rating (0 to 100 scale) [19, 29]
